The source of these data is patent publication US20160015725A1, “METHODS OF CONTROLLING TUMOR BIOENERGETICS NETWORKS” (THE WISTAR INSTITUTE OF ANATOMY AND BIOLOGY, priority 2012, published 2016).

In assay [1] the test system is LN229 cells. Nature of the assay: Glucose utilization. It is filed as cell-based, human. Conditions: tumor cells. Here is the method: Glucose concentrations in cell culture media were determined using a Glucose kit (Sigma-Aldrich). Briefly, 2×10^6 cells were seeded in 10 cm2 tissue culture dishes for 48 h, mixed with DMEM in the presence of Gamitrinib or 17-AAG (0-20 μM) for additional 4 h, and 200 μl aliquots of culture medium were incubated with 1 ml assay mixture, containing 1.5 mM NAD, 1 mM ATP, 1.0 U/ml Hexokinase, and 1.0 U/ml G6PDH. The glucose concentration under the various conditions was determined by measuring the amount of reduced NAD to NADH by G6PDH, and quantified spectrophotometrically at 340 nm wavelength. Extracellular lactate was measured by a colorometric assay kit (Abcam). Culture media from LN229 cells was replaced with DMEM containing vehicle (DMSO) or Gamitrinib (5 μM) for 5 h. Changes in lactate concentrations were measured by analysis of lactate-dependent conversion of NADP to NADPH in the presence of excess lactate dehydrogenase (LDH), and quantified by absorbance at 450 nm. All assays were performed at 25° C. under conditions of linear lactate-limited NADPH formation.

The subject of assay [2] is hexokinase-II (HK-II). The experiment in a line: Subcellular fractionation and Western blotting of hexokinases. It counts as cell-based, human. Conditions: LN229, 5 h. On the procedure: Mitochondrial fractions were isolated from Gamitrinib treated LN229 cells (0-20 μM for 5 h) using an ApoAlert™ cell fractionation kit (CLONTECH). Briefly, LN229 cells were mechanically disrupted by 60 strokes with a Dounce homogenizer in isolation buffer containing 1 mM DTT plus protease inhibitor cocktail. Cell debris was removed by centrifugation at 700 g for 10 min. The supernatant was further centrifuged at 10,000 g for 25 min, and supernantants or mitochondrial pellets were processed for further analysis.
(§1) For Western blotting, protein lysates were prepared from the different cell types in RIPA Buffer (150 mM NaCl, 1.0% Triton X-100, 0.5% sodium deoxycholate, 0.1% SDS, 50 mM Tris, pH 8.0) containing EDTA-free Protease Inhibitor Cocktail (Roche) and Phosphatase Inhibitor Cocktail 2 and 3 (Sigma Aldrich). Equal amounts of protein lysates were separated by SDS gel electrophoresis, transferred to PVDF membranes and incubated with primary antibodies of various specificities. Protein bands were detected by chemiluminescence.
(In general: Immunoblotting shows a protein as a band on a membrane.)

Assay [3] has as its system hexokinase. The experiment in a line: Hexokinase activity in mitochondrial fractions of treated cells. It counts as cell-based, human. Particulars: LN229 mitochondrial fractions, 5 h. Here is the method:
HK activity in LN229 cells was measured as the total glucosephosphorylating activity using a standard G6PDH-coupled assay kit (BioVision). Mitochondria isolated from Gamitrinib- or 17-AAG-treated LN229 cells, or cultures transfected with various siRNAs were homogenized in cold PBS, followed by centrifugation at 1000 g for 10 min at 4° C. HK activity was determined by analysis of G6P-dependent conversion of NADP to NADPH in the presence of excess […] in the presence of 2 mM glucose, and quantification of absorbance at 450 nm. All assays were performed at 25° C. under conditions of linear HK-limited NADPH formation.

Assay [4] concerns CypD. Nature of the assay: Mitochondrial protein folding (detergent solubility). It counts as cell-based, human. Conditions: increasing CHAPS concentrations. Here is the method:
Mitochondrial protein folding assays were performed as described (Moisoi et al., 2009). Briefly, mitochondrial fractions were isolated from vehicle- or Gamitrinib-treated LN229 cells (5 μM for 12 h) and suspended in equal volume of mitochondrial fractionation buffer containing increasing concentrations of CHAPS (0, 0.05, 0.1, 0.2, 0.5, 1 or 2%). Samples were incubated for 20 min on ice and detergent-insoluble protein aggregates were isolated by centrifugation (20,000 g) for 20 min. Pellets were processed for further analysis.

In assay [5] the test system is FF2508 or MRC5 primary human fibroblasts. Nature of the assay: AMPK activation in normal fibroblasts. It counts as cell-based. Here is the method:
as §1

Assay [6] deals with tumor cells. The experiment in a line: Autophagy (LC3 conversion, LC3-CFP puncta). It is filed as cell-based, human. Here is the method: LN229 cells were transfected with various siRNAs, and mixed after 24 h with plasmid encoding cyan fluorescent protein (CFP) fused to human […] (LC3) cDNA in the presence of Lipofectamine 2000 Transfection Reagent (Invitrogen). After 48 h, transfected cells were fixed in 4% paraformaldehyde for 15 min at 37° C., washed, and examined by fluorescence microscopy (Nikon, E600). The numbers of CFP-LC3 punctate dots per cell was determined from three independent experiments. A minimum of 50 CFP-LC3-positive cells assessed from at least ten random fields per sample were counted in triplicate per each condition.
(§2) Samples were imaged using a Leica TCS SP2 confocal microscope. For determination of autophagy, cells under the various conditions tested were harvested after 12 h, and analyzed with an antibody to […] (LC3) by Western blotting.

Assay [7] relates to PC3 cells. The experiment in a line: ER stress luciferase-promoter reporter assay. It is filed as cell-based, human. Particulars: PC3, 20 h. On the procedure: In another series of experiments, PC3 cells were transfected with control or Grp78-directed siRNA, and analyzed for cell viability after 24 h by an MTT assay. For promoter analysis, PC3 cells were plated in triplicate onto 48-well plates at 1.4×10^4 cells/well, and cotransfected with Firefly Luciferase-reporters for IRE1, ATF6, PERK or CHOP and a constitutive reporter (pTK-Renilla Luc) in a 10:1 ratio using X-tremeGENE reagent (Roche). After 24 h, cells were treated with vehicle, Gamitrinib, tunicamycin or 2-DG and analyzed after 20 h for Firefly and Renilla luciferase activity using a Dual Luciferase Reporter Assay System (Promega). Transfection of plasmid DNAs was carried out with lipofectamine 2000 (Invitrogen) according to published protocols. A PPIase-defective CypD H168Q mutant cDNA was generated by Quick-Change site-directed mutagenesis (Stratagene) using primers 5′-[…]-3′ (forward) and 5′-[…]-3′ (reverse) (mutated sequences are bolded). The inserted mutation (bolded) was confirmed by DNA sequencing, and cloned in a pcDNA3.0 expression vector (Invitrogen) for reconstitution experiments in CypD−/− MEFs.
(In general: A reporter such as luciferase makes a cellular process visible.)

Assay [8] relates to V600E mutant BRAF melanoma cells. Nature of the assay: AMPK and autophagy signaling in mutant BRAF melanoma cells. It counts as cell-based, human.
Excerpt: Human glioblastoma LN229, prostate adenocarcinoma PC3 or LNCaP cells, or normal NIH3T3 fibroblasts were obtained from the American Tissue Culture Collection (ATCC, Manassas, Va.), and maintained in culture according to the supplier's specifications. The following wild type (WT) BRAF N-Ras mutant melanoma cells WM852 and WM1366, and melanoma cells carrying a V600E activating mutation in the BRAF oncogene, 451Lu, Me11617 and WM983B were used in this study. WT or CypD knockout Mouse Embryonic Fibroblasts (MEFs, CypD−/−) were characterized earlier 40. In some experiments, CypD−/− MEFs were stably transfected with control plasmid, WT CypD or peptidyl prolyl isomerase (PPIase)-deficient H168Q CypD mutant cDNA, and analyzed for differential recruitment of HK-II to mitochondrial or cytosolic fractions.
as §1, §2

For the compound `CO[C@H]1/C=C\C=C(/C)C(=O)NC2=CC(=O)C(NCCCCCC[P+](c3ccccc3)(c3ccccc3)c3ccccc3)=C(C[C@@H](C)C[C@H](OC)[C@H](O)[C@@H](C)/C=C(\C)[C@@H]1OC(N)=O)C2=O` [Gamitrinib], the glucose utilization result in assay [1] is given as “reduced glucose utilization”. In addition, the “HK-II localization (mitochondria vs cytosol)” value in assay [2] was “concentration-dependent release of hexokinase-II (HKII) from mitochondria”. For the same compound, in assay [3], the hexokinase activity result is “a decrease in hexokinase activity”. For the same compound, the COX-IV solubility result in assay [4] is reported as “indistinguishable in control or Gamitrinib-treated cells”. In addition, the CypD solubility entry in assay [4] (vs untreated cultures) is on record as “caused CypD to remain insoluble over a broad range of detergent concentrations”. Moreover, in assay [5], the AMPK activation result is reported as “did not activate AMPK”. Besides, in assay [6], the “autophagy (LC3-II conversion)” value was “strongly activated autophagy”. Moreover, in assay [7], the “minimal CHOP promoter activity” value is listed as “transcriptionally induced”; the “transcriptional activation of response elements of IRE-1, ATF-6 and PERK” value was “comparably induced transcriptional activation”. The autophagy result in assay [8] (BRAF mutant cells) was “did not adaptively increase autophagy”. Further, the AMPK activation entry in assay [8] (BRAF mutant melanoma cells) is “failed to activate AMPK”.
